What was measured:
Thermostability = format: physicochemical; settings: 10% (w/v) aqueous solution, 120° C.; for Purity (%) after heating: HPLC
Experimental: After the heating, the aqueous solutions were cooled under atmospheric conditions and measured for coloration degree and determined for purity on HPLC. The coloration degree of each solution was evaluated based on the absorbance in a cell with a 1-cm light pass at a wavelength of 480 nm.

amylopsin = target: T1, amylopsin (Homo sapiens, UniProt P04746)
T1 sequence (P04746 16-511): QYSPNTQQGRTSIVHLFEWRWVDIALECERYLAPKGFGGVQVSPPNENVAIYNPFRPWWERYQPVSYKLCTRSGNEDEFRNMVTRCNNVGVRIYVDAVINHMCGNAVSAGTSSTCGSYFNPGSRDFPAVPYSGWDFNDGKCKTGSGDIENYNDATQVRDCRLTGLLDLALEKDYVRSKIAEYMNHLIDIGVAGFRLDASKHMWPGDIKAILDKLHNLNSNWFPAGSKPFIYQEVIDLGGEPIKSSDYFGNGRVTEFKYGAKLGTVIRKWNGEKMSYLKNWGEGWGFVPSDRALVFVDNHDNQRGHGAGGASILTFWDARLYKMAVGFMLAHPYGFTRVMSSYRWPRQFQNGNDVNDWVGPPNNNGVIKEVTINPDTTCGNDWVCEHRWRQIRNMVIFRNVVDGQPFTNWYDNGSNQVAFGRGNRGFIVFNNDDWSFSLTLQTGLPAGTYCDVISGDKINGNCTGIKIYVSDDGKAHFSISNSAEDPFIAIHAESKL

pH stability = format: physicochemical; settings: 4% (w/v), 100° C., 24 hours; for Purity (%) after heating: HPLC
Experimental: Eight milliliters of each solution was placed in a glass test tube, followed by sealing and then heating the test tube at 100° C. for 24 hours. After the heating, each solution was cooled and measured for coloration degree and determined for purity on HPLC. The coloration degree was evaluated based on the absorbance in a cell with a 1-cm light pass at a wavelength of 480 nm.

[1] = tested on: Bacteroides vulgatus JCM 5826; experiment: Assimilation test; format: cell-based; settings: 0.5% saccharide in PYF medium, 37° C., four days, anaerobic
[2] = tested on: Clostridium perfringens JCM 3816; format: cell-based; settings: 0.5% saccharide in PYF medium, 37° C., four days, anaerobic
salivary amylase = target: T2, salivary amylase (Homo sapiens, UniProt P0DUB6)
T2 sequence (P0DUB6 16-511): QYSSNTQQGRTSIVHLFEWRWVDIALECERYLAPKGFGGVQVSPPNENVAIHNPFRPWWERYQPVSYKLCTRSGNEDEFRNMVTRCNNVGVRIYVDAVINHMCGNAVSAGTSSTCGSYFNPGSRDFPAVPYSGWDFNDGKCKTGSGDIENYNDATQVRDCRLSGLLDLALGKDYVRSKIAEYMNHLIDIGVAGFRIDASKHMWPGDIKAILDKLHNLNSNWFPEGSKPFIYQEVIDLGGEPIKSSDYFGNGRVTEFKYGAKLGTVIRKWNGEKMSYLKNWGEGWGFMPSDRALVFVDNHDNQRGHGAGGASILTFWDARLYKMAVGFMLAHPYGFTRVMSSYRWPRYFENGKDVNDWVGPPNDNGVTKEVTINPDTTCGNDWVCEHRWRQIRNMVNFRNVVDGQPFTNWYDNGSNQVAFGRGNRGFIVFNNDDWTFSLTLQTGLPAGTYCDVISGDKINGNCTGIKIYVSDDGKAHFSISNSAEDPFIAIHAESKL

[3] = tested on: Escherichia coli IFO 3301; experiment: Assimilation test; format: cell-based; settings: 0.5% saccharide in PYF medium, 37° C., four days, anaerobic
[4] = Amino carbonyl reaction with glycine; format: physicochemical; settings: 10% (w/v) with 1% (w/v) glycine, pH 7.0, 120° C.
Experimental: Four milliliter aliquots of the resulting solution were placed in glass test tubes, sealed, and heated at 120° C. for 30 to 90 min. After allowing to stand for cooling at ambient temperature, each of the resulting solutions was measured for coloration degree to examine their amino carbonyl reactivity. The coloration degree was evaluated based on the absorbance in a cell with 1-cm light pass at a wavelength of 480 nm.

Inclusion action = format: physicochemical
Experimental: To 100 g aliquots of the aqueous solution was added 2 g of methanol, 3 g of ethanol, or 4.6 g acetic acid to be included by the cyclotetrasaccharide. Thereafter, each of the resulting solutions was filtered to remove non-inclusion products, and the filtrates were dried in vacuo. As a control, similar inclusion products were prepared by using “ISOELITE™ P”, a branched cyclodextrin commercialized by Maruha K.K., Tokyo, Japan, which were known to have inclusion ability.
To measure the amount of the inclusion products in the resulting lyophilized powders, one gram of each of the powders was dissolved in five milliliters of water and extracted after admixing with five milliliters of diethylether. The extraction was repeated, and the resulting extracts were quantified on gas chromatography.

[5] = tested on: internal content of rat cecum; experiment: Fermentation test; format: in vitro ADME
Experimental: The internal content of rat cecum was collected by anesthetizing a Wister male rat with ether, anatomizing the rat, collecting the internal content under anaerobic conditions, and suspending the resultant with 4-fold volumes of a 0.1 M aqueous solution of sodium bicarbonate. The cyclotetrasaccharide was added to the internal content of rat cecum in an amount of about 7% by weight, and the levels of cyclotetrasaccharide remained just after and 12 hours after the addition of the internal content were quantified on gas chromatography.

[6] = tested on: Bifidobacterium adolescentis JCM 1275; experiment: Assimilation test; format: cell-based; settings: 0.5% saccharide in PYF medium, 37° C., four days, anaerobic

For `OCC1OC2OCC3O[C@H](O[C@H]4C(O)C(CO)OC(OCC5O[C@H](O[C@@H](C1O)C2O)C(O)C(O)[C@@H]5O)C4O)C(O)C(O)[C@@H]3O` (stereo partly drawn) [cyclotetrasaccharide, cyclo{→6)-α-D-glucopyranosyl-(1→3)-α-D-glucopyranosyl-(1→6)-α-D-glucopyranosyl-(1→3)-α-D-glucopyranosyl-(1→}], the “Coloration degree (A480 nm)” value (Thermostability; heating time 0 min) was 0.00 A480 nm, the “Purity (%) after heating” value (Thermostability; heating time 0 min) was 100% and the “Coloration degree (A480 nm)” value (Thermostability; heating time 30 min) was 0.00 A480 nm. The “Purity (%) after heating” value (Thermostability; heating time 30 min) was 100%, the “Coloration degree (A480 nm)” value (Thermostability; heating time 60 min) was 0.00 A480 nm and the “Purity (%) after heating” value (Thermostability; heating time 60 min) was 100%. The “Coloration degree (A480 nm)” value (Thermostability; heating time 90 min) was 0.00 A480 nm, the “Purity (%) after heating” value (Thermostability; heating time 90 min) was 100% and the “Decomposition percentage (%) by digestive enzyme” value (amylopsin) was 0.0%. The “Coloration degree (A480 nm)” value (pH stability; pH 2.0 (Acetate buffer)) was 0.00 A480 nm, the “Purity (%) after heating” value (pH stability; pH 2.0 (Acetate buffer)) was 93% and the “Coloration degree (A480 nm)” value (pH stability; pH 3.0 (Acetate buffer)) was 0.00 A480 nm. For the same compound, the “Purity (%) after heating” value (pH stability; pH 3.0 (Acetate buffer)) was 100%, the “Coloration degree (A480 nm)” value (pH stability; pH 4.0 (Acetate buffer)) was 0.00 A480 nm and the “Purity (%) after heating” value (pH stability; pH 4.0 (Acetate buffer)) was 100%. For the same compound, the “Coloration degree (A480 nm)” value (pH stability; pH 5.0 (Acetate buffer)) was 0.00 A480 nm, the “Purity (%) after heating” value (pH stability; pH 5.0 (Acetate buffer)) was 100% and the “Coloration degree (A480 nm)” value (pH stability; pH 6.0 (Tris-HCl buffer)) was 0.00 A480 nm. For the same compound, the “Purity (%) after heating” value (pH stability; pH 6.0 (Tris-HCl buffer)) was 100%, the “Coloration degree (A480 nm)” value (pH stability; pH 7.0 (Tris-HCl buffer)) was 0.00 A480 nm and the “Purity (%) after heating” value (pH stability; pH 7.0 (Tris-HCl buffer)) was 100%. For the same compound, the “Coloration degree (A480 nm)” value (pH stability; pH 8.0 (Tris-HCl buffer)) was 0.00 A480 nm, the “Purity (%) after heating” value (pH stability; pH 8.0 (Tris-HCl buffer)) was 100% and the “Coloration degree (A480 nm)” value (pH stability; pH 9.0 (Ammonium buffer)) was 0.00 A480 nm. For the same compound, the “Purity (%) after heating” value (pH stability; pH 9.0 (Ammonium buffer)) was 100%, the “Coloration degree (A480 nm)” value (pH stability; pH 10.0 (Ammonium buffer)) was 0.00 A480 nm and the “Purity (%) after heating” value (pH stability; pH 10.0 (Ammonium buffer)) was 100%. For the same compound, the Assimilability [1] was “− (judged as negative (−) when the post culture had a pH of 6.0 or higher)”, the Assimilability [2] was “− (judged as negative (−) when the post culture had a pH of 6.0 or higher)” and the “Decomposition percentage (%) by digestive enzyme” value (salivary amylase) was 0.0%. The Assimilability [3] was “− (judged as negative (−) when the post culture had a pH of 6.0 or higher)”, the “Coloration degree (A480 nm)” value ([4]; heating time 0 min) was 0.00 A480 nm and the “Coloration degree (A480 nm)” value ([4]; heating time 30 min) was 0.00 A480 nm. The “Coloration degree (A480 nm)” value ([4]; heating time 60 min) was 0.00 A480 nm, the “Coloration degree (A480 nm)” value ([4]; heating time 90 min) was 0.00 A480 nm and the “inclusion ability relative to that of the branched cyclodextrin by weight” value (Inclusion action) was “about 2 folds”. For the same compound, the “Inclusion amount (mg/g lyophilized powder)” value (“Inclusion amount” for short) (Inclusion action; inclusion product Acetic acid) was 67.74 mg/g lyophilized powder, the “Inclusion amount” value (Inclusion action; inclusion product Ethanol) was 17.26 mg/g lyophilized powder and the “Inclusion amount” value (Inclusion action; inclusion product Methanol) was 6.71 mg/g lyophilized powder. For the same compound, the cyclotetrasaccharide remained intact ([5]; 12 hours after the addition) was 93%, the “level of cyclotetrasaccharide remained” value ([5]; 12 hours after the addition) was 63.0 mg per one gram of the internal content of rat cecum and the “level of cyclotetrasaccharide remained” value ([5]; just after the addition) was 68.0 mg per one gram of the internal content of rat cecum. For the same compound, the Assimilability [6] was “− (judged as negative (−) when the post culture had a pH of 6.0 or higher)”.

— patent US7186701B2, “Dehydrating agent and method for dehydrating moist article using the agent and dehydrated article obtained by the method” (Kabushiki Kaisha Hayashibara Seibutsu Kagaku Kenkyujo, priority 2001, dated 2007)
